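Exposure lasted 48 hours, with cells grown in 96-well plates and compounds tested at five concentrations. TGI is the concentration that stops growth completely.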
Key:
Experiment in all cases: NCI anticancer screen, dose series, 48 h
[1] = system: KM12 colon
[2] = system: DU-145 prostate
[3] = system: HCT-15 colon
[4] = system: NCI-H460 lung
[5] = system: OVCAR-3 ovarian
[6] = system: CCRF-CEM leukemia
[7] = system: OVCAR-5 ovarian
[8] = system: COLO 205 colon
[9] = system: MDA-MB-231 breast
[10] = system: TK-10 renal

SMILES | TGI [1] | TGI [2] | TGI [3] | TGI [4] | TGI [5] | TGI [6] | TGI [7] | TGI [8] | TGI [9] | TGI [10]
COc1cc(C(c2cc(OC)c(OC)c(OC)c2)N2C(=O)CCC2C(=O)O)cc(OC)c1OC (stereo not drawn) | > 100 µM | > 100 µM | > 100 µM | > 100 µM | > 100 µM | > 100 µM | > 100 µM | > 100 µM | > 100 µM | 
Nc1ccc(S(=O)(=O)c2ccc(N=[N+]([O-])c3ccc(S(=O)(=O)c4ccc(N)cc4)cc3)cc2)cc1 | > 100 µM | > 100 µM | > 100 µM | > 100 µM | > 56 µM | > 100 µM | > 100 µM | > 100 µM | > 78.1 µM | > 88 µM
Cc1cc(C)c(N)c(C)c1N | > 100 µM |  | > 100 µM | > 100 µM | > 100 µM | > 100 µM | > 100 µM | > 100 µM |  | > 100 µM
CCCCCCCCCCOC1C(C(C)OCCCN(C)C)OC2OC3(CCCCC3)OC21 (stereo not drawn) |  | 31.2 µM | 17.5 µM | 22.7 µM | 29.1 µM | 25.4 µM | 25.2 µM | 14.6 µM | 29.8 µM | 38.6 µM
CC1=NN(C(=O)c2ccccc2)C(=O)C1N=Nc1ccccc1C(=O)O (stereo not drawn) | > 100 µM |  | > 100 µM | > 100 µM | > 27.5 µM | > 50.7 µM | > 100 µM | > 100 µM |  | 
Cn1nc2ccc3nccc(NCCNCCCl)c3c2n1 | > 100 µM |  | > 100 µM | > 100 µM | > 100 µM | > 100 µM | > 100 µM | > 100 µM |  | > 100 µM
N/C(=N\N=C/c1cc(Cl)cc(Cl)c1O)NO | 22.4 µM |  | 17.8 µM | 14.2 µM | 53.6 µM |  | 33.5 µM | > 43.7 µM |  | 
CC(C)(CO)NC(=O)c1cccc(C(=O)NC(C)(C)CO)c1Br | > 100 µM | > 100 µM | > 100 µM | > 100 µM |  |  | > 100 µM | > 100 µM | > 100 µM | > 100 µM
COc1cc(C2c3cc4c(cc3[C@@H](Nc3ccc(N5CCOCC5)cc3)C3COC(=O)[C@H]23)OCO4)cc(OC)c1O (stereo partly drawn) |  |  | 2.59 µM | 1.14 µM | 13.2 µM | 0.773 µM | 22.1 µM | 4.94 µM |  | 
CCOC(=O)C1CCn2c(nc3c(=O)n(C)c(=O)n(C)c32)S1 (stereo not drawn) |  |  | > 100 µM | > 100 µM | > 100 µM | > 100 µM | > 100 µM |  |  | > 100 µM
CCOC(=O)CCc1c(C)c2c(O)cc(O)cc2oc1=O | > 100 µM |  | > 100 µM | > 100 µM | > 100 µM | > 100 µM | > 100 µM | > 100 µM |  | 
CCC(c1nc2ccccc2c(=O)n1NC(=O)C(C)(C)C)C1(O)CCCCC1 (stereo not drawn) | > 100 µM | > 100 µM | > 100 µM | > 100 µM | > 100 µM | > 100 µM | > 100 µM | > 100 µM | > 100 µM | 

Source: PubChem BioAssay (NCI)
